Data taken from ChEMBL document CHEMBL1201862, “PubChem BioAssay data set” (2004).
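A five-concentration, 48-hour dose response in 96-well plates underlies each endpoint, interpolated linearly between surrounding concentrations. Here, GI50 denotes the concentration required for 50% inhibition of growth.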 Activity calls are given as the source filed them. No stated cut-off is given here; in the data, active = GI50 up to about 1.1 µM and inactive = higher.

Experiments:
Assay in all cases: NCI tumour cell line growth inhibition, 48 h
[1] = system: SF-268
[2] = system: RPMI-8226
[3] = system: MOLT-4
[4] = system: MDA-MB-231
[5] = system: OVCAR-3
[6] = system: SK-MEL-28
[7] = system: SW-620
[8] = system: UACC-257
[9] = system: SK-MEL-5
[10] = system: T47D
[11] = system: SR
[12] = system: COLO 205
[13] = system: UO-31
[14] = system: MDA-MB-435
[15] = system: Malme-3M
[16] = system: K562
[17] = system: HT-29
[18] = system: HCT-116
[19] = system: M14
[20] = system: HOP-92

Row | SMILES | GI50 [1] | GI50 [2] | GI50 [3] | GI50 [4] | GI50 [5] | GI50 [6] | GI50 [7] | GI50 [8] | GI50 [9] | GI50 [10] | GI50 [11] | GI50 [12] | GI50 [13] | GI50 [14] | GI50 [15] | GI50 [16] | GI50 [17] | GI50 [18] | GI50 [19] | GI50 [20]
1 | C=C(C)c1nc(C#N)c(N)o1 | > 100 µM (inactive) | > 100 µM (inactive) | > 100 µM (inactive) | > 100 µM (inactive) | > 100 µM (inactive) | > 100 µM (inactive) | > 100 µM (inactive) | > 100 µM (inactive) | > 100 µM (inactive) | > 100 µM (inactive) | > 100 µM (inactive) | > 100 µM (inactive) | > 100 µM (inactive) | > 100 µM (inactive) | > 100 µM (inactive) | > 100 µM (inactive) | > 100 µM (inactive) | > 100 µM (inactive) | > 100 µM (inactive) | –
2 | CCc1nc(N)nc(N)c1-c1ccc(Cl)c(/N=C/N(C)C)c1 | 62.1 µM (inactive) | 54.3 µM (inactive) | 34.8 µM (inactive) | 81.3 µM (inactive) | 65.6 µM (inactive) | > 100 µM (inactive) | 22.3 µM (inactive) | > 100 µM (inactive) | 29.9 µM (inactive) | 77.3 µM (inactive) | 31.1 µM (inactive) | 65 µM (inactive) | > 100 µM (inactive) | 45.9 µM (inactive) | – | 6.03 µM (inactive) | 18.8 µM (inactive) | 10.3 µM (inactive) | 52.5 µM (inactive) | > 90.4 µM (inactive)
3 | CC1=NN(C(=O)c2ccc(Cl)cc2)C(=O)C1/N=N/c1ccc(S(=O)(=O)Nc2ncccn2)cc1 (centres undefined) | > 100 µM (inactive) | – | > 100 µM (inactive) | > 100 µM (inactive) | > 100 µM (inactive) | > 100 µM (inactive) | > 100 µM (inactive) | > 100 µM (inactive) | > 100 µM (inactive) | > 100 µM (inactive) | > 100 µM (inactive) | > 100 µM (inactive) | > 100 µM (inactive) | > 100 µM (inactive) | > 100 µM (inactive) | > 100 µM (inactive) | > 100 µM (inactive) | > 100 µM (inactive) | > 100 µM (inactive) | < 0.01 µM (active)
4 | O=C(c1ccc(Cl)cc1)N(C(=O)N1CCC(c2ccccc2)CC1)c1ccccc1 | 82 µM (inactive) | 13.7 µM (inactive) | 21.8 µM (inactive) | 26.1 µM (inactive) | 44.8 µM (inactive) | 45.2 µM (inactive) | 92 µM (inactive) | 25.4 µM (inactive) | 15.4 µM (inactive) | 11.1 µM (inactive) | – | 33 µM (inactive) | 12.1 µM (inactive) | 25.8 µM (inactive) | 10.4 µM (inactive) | 32.1 µM (inactive) | 31.3 µM (inactive) | 17.5 µM (inactive) | 18.4 µM (inactive) | –
5 | O=C(Nc1ccn(C2CCC(CO)O2)c(=O)n1)c1ccccc1 (centres undefined) | > 100 µM (inactive) | > 100 µM (inactive) | > 100 µM (inactive) | > 100 µM (inactive) | – | > 100 µM (inactive) | > 100 µM (inactive) | > 100 µM (inactive) | > 100 µM (inactive) | > 100 µM (inactive) | > 100 µM (inactive) | > 100 µM (inactive) | > 100 µM (inactive) | > 100 µM (inactive) | > 100 µM (inactive) | > 100 µM (inactive) | > 100 µM (inactive) | > 100 µM (inactive) | > 100 µM (inactive) | –
6 | CC(C(=O)NCNC(=O)c1ccccc1)C(=O)NCc1ccccc1 (centres undefined) | > 100 µM (inactive) | > 100 µM (inactive) | > 100 µM (inactive) | > 100 µM (inactive) | – | – | > 100 µM (inactive) | > 100 µM (inactive) | > 100 µM (inactive) | > 100 µM (inactive) | > 100 µM (inactive) | > 100 µM (inactive) | > 100 µM (inactive) | > 100 µM (inactive) | > 100 µM (inactive) | – | > 100 µM (inactive) | > 100 µM (inactive) | > 100 µM (inactive) | > 100 µM (inactive)
7 | C=Cc1cc2c(cc1O)CC[C@@H]1[C@@H]2CC[C@]2(C)[C@@H](O)CC[C@@H]12 | 4.16 µM (inactive) | – | 3.9 µM (inactive) | 5.33 µM (inactive) | – | 4.06 µM (inactive) | 4.32 µM (inactive) | 4.15 µM (inactive) | 4.39 µM (inactive) | 8.79 µM (inactive) | 1.97 µM (inactive) | 15.4 µM (inactive) | 7 µM (inactive) | 1.09 µM (active) | 2.18 µM (inactive) | 3.03 µM (inactive) | 15.3 µM (inactive) | – | 5.4 µM (inactive) | –
8 | Cc1cc(C)c2c(n1)S(=O)(=O)N(CCCN1CCN(c3cccc(C(F)(F)F)c3)CC1)C(C(=O)c1ccccc1)=C2O | 8.51 µM (inactive) | – | 2.67 µM (inactive) | 20.3 µM (inactive) | 4.18 µM (inactive) | 9.64 µM (inactive) | 4.13 µM (inactive) | 5.66 µM (inactive) | 2.93 µM (inactive) | 13.1 µM (inactive) | 2.93 µM (inactive) | 3.31 µM (inactive) | 5.42 µM (inactive) | 6.11 µM (inactive) | 18.4 µM (inactive) | 3.69 µM (inactive) | 5.22 µM (inactive) | 4.38 µM (inactive) | 7.36 µM (inactive) | 5.19 µM (inactive)
9 | Cn1c2c3ccccc3nc-2c(O)c2ccccc21 [HYDROXYCRYPTOLEPINE] | 0.735 µM (active) | 45.7 µM (inactive) | 27.7 µM (inactive) | 85.9 µM (inactive) | > 100 µM (inactive) | 6.52 µM (inactive) | > 100 µM (inactive) | > 100 µM (inactive) | 41.2 µM (inactive) | > 100 µM (inactive) | – | 83.2 µM (inactive) | > 100 µM (inactive) | > 100 µM (inactive) | > 100 µM (inactive) | > 100 µM (inactive) | > 100 µM (inactive) | 49.4 µM (inactive) | > 100 µM (inactive) | > 100 µM (inactive)
10 | Cc1ccc(-c2n[nH]c(=O)n2N2C(=O)C=CC2=O)cc1 | > 100 µM (inactive) | – | > 100 µM (inactive) | > 100 µM (inactive) | > 100 µM (inactive) | – | – | > 100 µM (inactive) | > 100 µM (inactive) | > 100 µM (inactive) | > 100 µM (inactive) | > 100 µM (inactive) | – | > 100 µM (inactive) | > 100 µM (inactive) | > 100 µM (inactive) | > 100 µM (inactive) | > 100 µM (inactive) | > 100 µM (inactive) | –
11 | O=c1c(C(c2ccc3c(c2)Cc2ccccc2-3)c2c(O)oc3ccccc3c2=O)c(O)oc2ccccc12 | 23.9 µM (inactive) | 44.9 µM (inactive) | 40.6 µM (inactive) | 28.2 µM (inactive) | 31 µM (inactive) | 22.5 µM (inactive) | 29.8 µM (inactive) | 34.6 µM (inactive) | 24.5 µM (inactive) | 41.5 µM (inactive) | – | 20.4 µM (inactive) | 16.7 µM (inactive) | 31 µM (inactive) | 26.2 µM (inactive) | 10 µM (inactive) | > 100 µM (inactive) | 35.6 µM (inactive) | 20.5 µM (inactive) | 19.1 µM (inactive)
12 | CCOC(=O)C1=C(C)NC(C)=C(C(=O)OCC)C1c1ccc(Cl)cc1 | 17.5 µM (inactive) | 9.48 µM (inactive) | 6.1 µM (inactive) | 15.3 µM (inactive) | 15.8 µM (inactive) | 20.4 µM (inactive) | 16.3 µM (inactive) | 13.4 µM (inactive) | 13.7 µM (inactive) | 15.6 µM (inactive) | – | 16.3 µM (inactive) | 20.3 µM (inactive) | 14.4 µM (inactive) | 18.1 µM (inactive) | 9.91 µM (inactive) | 10.9 µM (inactive) | 9.14 µM (inactive) | 16.6 µM (inactive) | 10.3 µM (inactive)
13 | CSC1=NN(c2ccccc2)C(=O)C1=C(SC)SC | 26.1 µM (inactive) | 14.3 µM (inactive) | 26 µM (inactive) | 14.3 µM (inactive) | 42.6 µM (inactive) | 30.5 µM (inactive) | 33.5 µM (inactive) | 16 µM (inactive) | 16.3 µM (inactive) | 18.2 µM (inactive) | 24 µM (inactive) | 13.2 µM (inactive) | 12.1 µM (inactive) | 31.9 µM (inactive) | 11.2 µM (inactive) | 20.1 µM (inactive) | 19.1 µM (inactive) | 16.7 µM (inactive) | 37.2 µM (inactive) | –
14 | O=C1N[C@H]2c3c(Cl)sc(Cl)c3[C@@H](O)[C@H]2O1 | > 100 µM (inactive) | > 100 µM (inactive) | > 100 µM (inactive) | > 100 µM (inactive) | > 100 µM (inactive) | > 100 µM (inactive) | > 100 µM (inactive) | > 100 µM (inactive) | > 100 µM (inactive) | > 100 µM (inactive) | > 100 µM (inactive) | > 100 µM (inactive) | > 100 µM (inactive) | > 100 µM (inactive) | > 100 µM (inactive) | > 100 µM (inactive) | > 100 µM (inactive) | > 100 µM (inactive) | > 100 µM (inactive) | –
15 | Cc1nc(Nc2nc3ccccc3[nH]2)[nH]c(=O)c1CCO | > 96.6 µM (inactive) | – | > 100 µM (inactive) | 27.4 µM (inactive) | > 100 µM (inactive) | > 100 µM (inactive) | 99.8 µM (inactive) | 45.8 µM (inactive) | 70.3 µM (inactive) | 7.6 µM (inactive) | 30.9 µM (inactive) | > 59.8 µM (inactive) | 46.8 µM (inactive) | > 100 µM (inactive) | 25.6 µM (inactive) | > 100 µM (inactive) | > 100 µM (inactive) | 77.6 µM (inactive) | 27.2 µM (inactive) | 55.3 µM (inactive)
